Test results from patent US20080275075A1, “Medicine Comprising a Combination of an Acetylcholinesterase Inhibitor and a 5-Substituted-3-Oxadiazolyl-1,6-Naphthyridin-2(1H)-One Derivative” (priority 2004, published 2008).
Counter-ions that a name gives are not always drawn.

Key:
[1] = tested on: spatial memory disorder induced by MK-801; assay: Ameliorating effect on spatial memory disorder induced by MK-801 (Y-maze alternation behavior); format: in vivo, ddY male mice; settings: for [MED (mg/kg)]: minimum effective dose, oral, 1 h before MK-801 0.1 mg/kg s.c., single administration
Method: (§1) The pharmacological experiment to investigate ameliorating effect on spatial memory disorder induced by scopolamine was carried out by systemic administration to animals according to the following method of Itoh, T. et al. In addition, the pharmacological experiment to investigate ameliorating effect on spatial memory disorder induced by MK-801 was carried out by systemic administration to animals according to the following method of Maurice, T. et al.
(§2) The spatial memory test using Y-maze apparatus which was selected for the pharmacological experiment is a test to utilize the behavioral property of animals to enter into a new arm, avoiding the arm that they entered into just before (alternation behavior). This method is often used in order to study spatial working memory.
This experiment was carried out according to the method of Maurice, T., et al. [Brain Res., 647, pp. 44-56 (1994)].
Ten to twelve ddY male mice weighing 26-36 g were used per one group in the experiment. A solution of MK-801 in physiological saline (concentration: 0.01 mg/ml) was subcutaneously administered to mice in a volume of 0.1 ml/10 g of body weight, i.e., 0.1 mg/kg. One hour before MK-801 administration, the groups of mice to which each test compound should be singly administered were orally treated with test compound A, test compound B or donepezil suspended in 0.5% tragacanth solution in a volume of 0.1 ml/10 g of body weight; and the animals in the amnesia control group and the vehicle control group orally received a 0.5% tragacanth solution in a volume of 0.1 ml/10 g of body weight. However, the vehicle control group was injected with physiological saline instead of MK-801. Twenty minutes after administration of MK-801, the mice were placed at the end of the arm A of the Y-maze apparatus which was composed of three black acrylic trapezoid arms (bottom width: 3 cm, height of side wall: 12 cm, width of opened ceiling: 10 cm, length: 40 cm), wherein said three arms were connected at the one end of each arm to form Y-shape and another ends were closed, and the three arms were differentiated by the names as A, B and C respectively, and allowed to search freely the maze for 8 minutes. When the mouse was checked to enter into an arm at the length of not less than 10 cm from the entrance of the arm, the name of the arm (A, B or C) was recorded. For the final data gotten, the ratio of the number of the alternation behavior to that of the entries (obtained by subtracting 2 from the total number of arm entries) was estimated as the rate of alternation behavior.
In statistical analysis, the rate of alternation behavior in the amnesia control group was compared with that in the vehicle control group by the Wilcoxon rank sum test and it was checked if a significant amnesia was induced in the amnesia control group. Next, the efficacy of the test compounds was evaluated in comparison between the amnesia control group and each group of test compound A, test compound B or donepezil by the nonparametric Dunnett multiple comparison test. The statistical calculation was carried out with SAS® System (Release 8.02, SAS Institute Inc.) and Preclinical Package Version 5.0 (SAS Institute Japan Ltd.).

[2] = tested on: spatial memory disorder induced by scopolamine; assay: Ameliorating effect on spatial memory disorder induced by scopolamine (Y-maze alternation behavior); format: in vivo, ddY male mice; settings: for # [MED (mg/kg)] Combined administration with donepezil: minimum effective dose of test compound, combined with donepezil 1 mg/kg; for # [MED (mg/kg)] Combined administration with donepezil / Single administration [MED (mg/kg)]: oral; for Single administration [MED (mg/kg)]: minimum effective dose, 1 h before scopolamine 0.6 mg/kg s.c.; for dose at which spatial memory disorder induced by scopolamine was significantly ameliorated: single oral administration
Method: as §1, §2
This experiment was carried out according to the method of Itoh, J., et al. [Eur. J. Pharmacol., 236, pp. 341-345 (1993)].
Ten to twelve ddY male mice weighing 28-34 g were used per one group in the experiment. A solution of scopolamine in physiological saline (concentration: 0.06 mg/ml) was subcutaneously administered to mice in a volume of 0.1 ml/10 g of body weight, i.e., 0.6 mg/kg. […] However, the vehicle control group was injected with physiological saline instead of scopolamine. Thirty minutes after the administration of scopolamine, the mice were placed at the end of the arm A of the Y-maze apparatus which was composed of three black acrylic trapezoid arms (bottom width: 3 cm, height of side wall: 12 cm, width of opened ceiling: 10 cm, length: 40 cm), wherein said three arms were connected at the one end of each arm to form Y-shape and another ends were closed, and the three arms were differentiated by the names as A, B and C respectively, and allowed to search freely the maze for 8 minutes. When the mouse was checked to enter into an arm at the length of not less than 10 cm from the entrance of the arm, the name of the arm (A, B or C) was recorded. For the final data gotten, the ratio of the number of the alternation behavior to that of the entries (obtained by subtracting 2 from the total number of arm entries) was estimated as the rate of alternation behavior.
In statistical analysis, the rate of alternation behavior in the amnesia control group was compared with that in the vehicle control group by the Wilcoxon rank sum test and it was checked if a significant amnesia was induced in the amnesia control group. Next, the efficacy of the test compounds in single use or in combination use of the test compounds with donepezil was evaluated in comparison between the amnesia control group and the single-administration groups using each one of the test compound A, the test compound B or donepezil; or in comparison between the amnesia control group and the combination groups of the test compound A or B and donepezil, by the nonparametric Dunnett multiple comparison test. The statistical calculation was carried out with SAS® System (Release 8.02, SAS Institute Inc.) and Preclinical Package Version 5.0 (SAS Institute Japan Ltd.).

Row | SMILES | [MED (mg/kg)] [1] | dose at which spatial memory disorder induced by MK-801 was significantly ameliorated ([1]; single oral administration) | # [MED (mg/kg)] Combined administration with donepezil ([2]; scopolamine 0.6 mg/kg s.c.) | Single administration [MED (mg/kg)] ([2]; single administration) | dose at which spatial memory disorder induced by scopolamine was significantly ameliorated [2] | rate of alternation behavior ([1]; amnesia control group, MK-801 0.1 mg/kg s.c., vehicle control group 65-73%) | rate of alternation behavior ([2]; amnesia control group, scopolamine 0.6 mg/kg s.c., vehicle control group 63-70%) | amelioration of spatial memory disorder induced by MK-801 ([1]; single oral administration) | amelioration of spatial memory disorder induced by scopolamine ([2]; 1 mg/kg, single administration)
1 | O=c1[nH]c2ccnc(-c3ccsc3)c2cc1-c1nc(C2CC2)no1 [Test compound B, 3-(3-cyclopropyl-1,2,4-oxadiazol-5-yl)-5-(3-thienyl)-1,6-naphthyridin-2(1H)-one] | 0.1 mg/kg | ≥ 0.1 mg/kg | 0.01 mg/kg | 0.1 mg/kg | ≥ 0.1 mg/kg |  |  |  | 
2 | C[C@]12N[C@H](Cc3ccccc31)c1ccccc12 [MK-801, dizocilipine maleate, reference compound] |  |  |  |  |  | 45-47% |  |  | 
3 | COc1cccc(-c2nccc3[nH]c(=O)c(-c4noc(C)n4)cc23)c1 [Test compound A, 3-(5-methyl-1,2,4-oxadiazol-3-yl)-5-(3-methoxyphenyl)-1,6-naphthyridin-2(1H)-one] | 0.3 mg/kg | ≥ 0.3 mg/kg | 0.03 mg/kg | 0.3 mg/kg | ≥ 0.3 mg/kg |  |  |  | 
4 | CN1[C@@H]2C[C@@H](OC(=O)[C@H](CO)c3ccccc3)C[C@H]1[C@@H]1O[C@@H]12 [scopolamine, Scopolamine hydrobromide, reference compound] |  |  |  |  |  |  | 39-46% |  | 
5 | COc1cc2c(cc1OC)C(=O)C(CC1CCN(Cc3ccccc3)CC1)C2 (centres unmarked) [Donepezil, Donepezil hydrochloride, reference compound] | >15 mg/kg |  |  | 10 mg/kg | ≥ 10 mg/kg |  |  | not ameliorated | not ameliorated
